Source: ChEMBL document CHEMBL5360618, “PepScaf: Harnessing Machine Learning with In Vitro Selection toward De Novo Macrocyclic Peptides against IL-17C/IL-17RE Interaction” (J Med Chem, 2023)
Positions of bridges follow the written chain, without caps; N, C: chain ends. Non-standard residues stand in square brackets, D forms with d. Residues, ends and D or L forms follow the SMILES beside them. Ala(imidazol-2-yl) = N[C@@H](Cc1ncc[nH]1)C(=O)O

molecular target: T1, IL17-RE-IL-17C (Homo sapiens, UniProt Q8NFR9+Q9P0M4); assay: Inhibition of IL-17C/IL-17RE interaction (unknown origin) incubated for 1.5 hrs by ELISA method; assay type: protein-complex assay
T1 sequence (Q9P0M4 whole entry): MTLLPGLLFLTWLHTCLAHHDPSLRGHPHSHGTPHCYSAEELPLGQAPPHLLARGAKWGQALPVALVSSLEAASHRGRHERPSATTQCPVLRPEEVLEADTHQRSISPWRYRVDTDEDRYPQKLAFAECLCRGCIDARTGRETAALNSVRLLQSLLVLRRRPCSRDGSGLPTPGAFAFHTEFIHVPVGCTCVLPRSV
T1 sequence (Q8NFR9 whole entry): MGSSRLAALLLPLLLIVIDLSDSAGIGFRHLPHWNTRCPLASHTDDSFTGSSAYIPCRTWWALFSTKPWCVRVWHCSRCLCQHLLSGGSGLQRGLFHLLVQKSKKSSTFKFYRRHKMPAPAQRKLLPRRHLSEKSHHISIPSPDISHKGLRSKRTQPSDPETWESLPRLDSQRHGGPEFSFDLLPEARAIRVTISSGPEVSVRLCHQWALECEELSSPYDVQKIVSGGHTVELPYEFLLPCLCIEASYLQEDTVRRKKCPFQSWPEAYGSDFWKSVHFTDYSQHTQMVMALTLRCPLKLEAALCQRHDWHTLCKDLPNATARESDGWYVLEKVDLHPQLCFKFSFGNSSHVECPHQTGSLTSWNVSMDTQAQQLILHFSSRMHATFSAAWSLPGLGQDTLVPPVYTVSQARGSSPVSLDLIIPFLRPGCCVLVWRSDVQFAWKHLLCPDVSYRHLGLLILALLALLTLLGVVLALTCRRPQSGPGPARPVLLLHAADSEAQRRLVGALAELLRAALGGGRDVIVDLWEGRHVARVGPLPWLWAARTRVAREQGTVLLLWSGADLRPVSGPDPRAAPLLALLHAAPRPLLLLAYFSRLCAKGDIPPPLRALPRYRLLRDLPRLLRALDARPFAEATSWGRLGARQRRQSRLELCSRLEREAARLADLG

Row | SMILES | IC50 [nM]
1 | CC[C@H](C)[C@@H]1NC(=O)[C@H](Cc2c[nH]cn2)NC(=O)[C@H](Cc2ccc(O)cc2)NC(=O)CSC[C@@H](C(=O)NCC(N)=O)NC(=O)CNC(=O)[C@H](CC(C)C)NC(=O)[C@H](CO)NC(=O)CNC(=O)[C@H](Cc2ccc(O)cc2)NC(=O)[C@H](CC(C)C)NC(=O)[C@H]([C@@H](C)CC)NC(=O)[C@H](CCCNC(=N)N)NC(=O)[C@H](Cc2ccc(O)cc2)NC(=O)[C@H](Cc2ccc(O)cc2)NC1=O ({CH2CO}-YHIYYRILYGSLGCG-NH2; thioether N-14) | 6.3
2 | CC[C@H](C)[C@@H]1NC(=O)[C@H](CCCNC(=N)N)NC(=O)[C@H](Cc2ccc(O)cc2)NC(=O)[C@H](Cc2ccc(O)cc2)NC(=O)[C@H](Cc2c[nH]cn2)NC(=O)[C@H](Cc2c[nH]cn2)NC(=O)[C@H](Cc2ccc(O)cc2)NC(=O)CSC[C@@H](C(=O)NCC(N)=O)NC(=O)CNC(=O)[C@H](CC(C)C)NC(=O)[C@H](CCC(=O)O)NC(=O)[C@H](C)NC(=O)[C@H](Cc2ccc(O)cc2)NC(=O)[C@H](CC(C)C)NC1=O ({CH2CO}-YHHYYRILYAELGCG-NH2; thioether N-14) | 1360
3 | CC[C@H](C)[C@@H]1NC(=O)[C@H](Cc2c[nH]cn2)NC(=O)[C@H](Cc2ccc(O)cc2)NC(=O)CSC[C@@H](C(=O)NCC(N)=O)NC(=O)CNC(=O)[C@H](CC(C)C)NC(=O)[C@H](CC(=O)O)NC(=O)CNC(=O)[C@H](Cc2ccc(O)cc2)NC(=O)[C@H](CC(C)C)NC(=O)[C@H](CO)NC(=O)[C@H](C)NC(=O)[C@H](Cc2ccc(O)cc2)NC(=O)[C@H](Cc2ccc(O)cc2)NC1=O ({CH2CO}-YHIYYASLYGDLGCG-NH2; thioether N-14) | 1.4
4 | CC(C)C[C@@H]1NC(=O)[C@H](Cc2c[nH]c3ccccc23)NC(=O)[C@H](Cc2c[nH]cn2)NC(=O)[C@H](CC(=O)O)NC(=O)[C@H](Cc2ccccc2)NC(=O)[C@H](Cc2c[nH]cn2)NC(=O)[C@H](Cc2ccc(O)cc2)NC(=O)CSC[C@@H](C(=O)NCC(N)=O)NC(=O)[C@H](CC(C)C)NC(=O)[C@H](CC(C)C)NC(=O)[C@H](Cc2c[nH]cn2)NC(=O)[C@H](C)NC1=O ({CH2CO}-YHFDHWLAHLLCG-NH2; thioether N-12) | > 30000
5 | CC[C@H](C)[C@@H]1NC(=O)[C@H](CCCNC(=N)N)NC(=O)[C@H](Cc2ccc(O)cc2)NC(=O)[C@H](Cc2ccc(O)cc2)NC(=O)[C@H](Cc2c[nH]cn2)NC(=O)[C@H](Cc2c[nH]cn2)NC(=O)[C@H](Cc2ccc(O)cc2)NC(=O)CSC[C@@H](C(=O)NCC(N)=O)NC(=O)CNC(=O)[C@H](C)NC(=O)[C@H](CCC(=O)O)NC(=O)CNC(=O)[C@H](Cc2ccc(O)cc2)NC(=O)[C@H](CC(C)C)NC1=O ({CH2CO}-YHHYYRILYGEAGCG-NH2; thioether N-14) | > 30000
6 | CC[C@H](C)[C@@H]1NC(=O)CNC(=O)[C@H](Cc2ccc(O)cc2)NC(=O)[C@H](Cc2ccc(O)cc2)NC(=O)[C@H](Cc2c[nH]cn2)NC(=O)[C@H](Cc2c[nH]cn2)NC(=O)[C@H](Cc2ccc(O)cc2)NC(=O)CSC[C@@H](C(=O)NCC(N)=O)NC(=O)CNC(=O)[C@H](CC(C)C)NC(=O)[C@H](CCC(=O)O)NC(=O)CNC(=O)[C@H](Cc2ccc(O)cc2)NC(=O)[C@H](CC(C)C)NC1=O ({CH2CO}-YHHYYGILYGELGCG-NH2; thioether N-14) | > 30000
7 | CC[C@H](C)[C@@H]1NC(=O)[C@H](Cc2c[nH]cn2)NC(=O)[C@H](Cc2ccc(O)cc2)NC(=O)CSC[C@@H](C(=O)NCC(N)=O)NC(=O)CNC(=O)[C@H](CC(C)C)NC(=O)[C@H](CC(N)=O)NC(=O)CNC(=O)[C@H](Cc2ccc(O)cc2)NC(=O)[C@H](CC(C)C)NC(=O)[C@H](CO)NC(=O)[C@H](C)NC(=O)[C@H](Cc2ccc(O)cc2)NC(=O)[C@H](Cc2ccc(O)cc2)NC1=O ({CH2CO}-YHIYYASLYGNLGCG-NH2; thioether N-14) | 4.4
8 | CC[C@H](C)[C@@H]1NC(=O)[C@H](CCCNC(=N)N)NC(=O)[C@H](Cc2ccc(O)cc2)NC(=O)[C@H](Cc2ccccc2)NC(=O)[C@H](Cc2c[nH]cn2)NC(=O)[C@H](Cc2c[nH]cn2)NC(=O)[C@H](Cc2ccc(O)cc2)NC(=O)CSC[C@@H](C(=O)NCC(N)=O)NC(=O)CNC(=O)[C@H](CC(C)C)NC(=O)[C@H](CCC(=O)O)NC(=O)CNC(=O)[C@H](Cc2ccc(O)cc2)NC(=O)[C@H](CC(C)C)NC1=O ({CH2CO}-YHHFYRILYGELGCG-NH2; thioether N-14) | 171
9 | CC(C)C[C@@H]1NC(=O)[C@H](CC(N)=O)NC(=O)CNC(=O)[C@H](Cc2ccc(O)cc2)NC(=O)[C@H](CC(C)C)NC(=O)[C@H](CC(C)C)NC(=O)[C@H](CCCNC(=N)N)NC(=O)[C@H](Cc2ccc(O)cc2)NC(=O)[C@H](Cc2ccc(O)cc2)NC(=O)[C@H](CC(C)C)NC(=O)[C@H](Cc2c[nH]cn2)NC(=O)[C@H](Cc2ccc(O)cc2)NC(=O)CSC[C@@H](C(=O)NCC(N)=O)NC(=O)CNC1=O ({CH2CO}-YHLYYRLLYGNLGCG-NH2; thioether N-14) | 48.8
10 | CC[C@H](C)[C@@H]1NC(=O)[C@H](CCCNC(=N)N)NC(=O)[C@H](Cc2ccc(O)cc2)NC(=O)[C@H](Cc2ccc(O)cc2)NC(=O)[C@H](Cc2c[nH]cn2)NC(=O)[C@H](C)NC(=O)[C@H](Cc2ccc(O)cc2)NC(=O)CSC[C@@H](C(=O)NCC(N)=O)NC(=O)CNC(=O)[C@H](CC(C)C)NC(=O)[C@H](CCC(=O)O)NC(=O)CNC(=O)[C@H](Cc2ccc(O)cc2)NC(=O)[C@H](CC(C)C)NC1=O ({CH2CO}-YAHYYRILYGELGCG-NH2; thioether N-14) | > 30000
11 | CC[C@H](C)[C@@H]1NC(=O)[C@H](CCCNC(=N)N)NC(=O)[C@H](Cc2ccc(O)cc2)NC(=O)[C@H](Cc2ccc(O)cc2)NC(=O)[C@H](Cc2c[nH]cn2)NC(=O)[C@H](Cc2c[nH]cn2)NC(=O)[C@H](Cc2ccc(O)cc2)NC(=O)CSC[C@@H](C(=O)NCC(N)=O)NC(=O)CNC(=O)[C@H](CC(C)C)NC(=O)[C@H](CCC(=O)O)NC(=O)[C@H](CO)NC(=O)[C@H](Cc2ccc(O)cc2)NC(=O)[C@H](CC(C)C)NC1=O ({CH2CO}-YHHYYRILYSELGCG-NH2; thioether N-14) | 1340
12 | CC[C@H](C)[C@@H]1NC(=O)[C@H](C)NC(=O)[C@H](Cc2ccc(O)cc2)NC(=O)[C@H](Cc2ccc(O)cc2)NC(=O)[C@H](Cc2c[nH]cn2)NC(=O)[C@H](Cc2c[nH]cn2)NC(=O)[C@H](Cc2ccc(O)cc2)NC(=O)CSC[C@@H](C(=O)NCC(N)=O)NC(=O)CNC(=O)[C@H](CC(C)C)NC(=O)[C@H](CCC(=O)O)NC(=O)CNC(=O)[C@H](Cc2ccc(O)cc2)NC(=O)[C@H](CC(C)C)NC1=O ({CH2CO}-YHHYYAILYGELGCG-NH2; thioether N-14) | 400
13 | CC[C@H](C)[C@@H]1NC(=O)[C@H](CCCNC(=N)N)NC(=O)[C@H](Cc2ccc(O)cc2)NC(=O)[C@H](Cc2ccc(O)cc2)NC(=O)[C@H](Cc2c[nH]cn2)NC(=O)[C@H](Cc2c[nH]cn2)NC(=O)[C@H](Cc2ccc(O)cc2)NC(=O)CSC[C@@H](C(=O)NCC(N)=O)NC(=O)CNC(=O)[C@H](CC(C)C)NC(=O)[C@H](CCC(=O)O)NC(=O)CNC(=O)[C@H](Cc2c[nH]cn2)NC(=O)[C@H](CC(C)C)NC1=O ({CH2CO}-YHHYYRILHGELGCG-NH2; thioether N-14) | > 30000
14 | CC(C)C[C@@H]1NC(=O)[C@H](CC(N)=O)NC(=O)CNC(=O)[C@H](Cc2ccc(O)cc2)NC(=O)[C@H](CC(C)C)NC(=O)[C@H](CO)NC(=O)[C@H](C(C)C)NC(=O)[C@H](Cc2ccc(O)cc2)NC(=O)[C@H](Cc2ccc(O)cc2)NC(=O)[C@H](CC(C)C)NC(=O)[C@H](Cc2c[nH]cn2)NC(=O)[C@H](Cc2ccc(O)cc2)NC(=O)CSC[C@@H](C(=O)NCC(N)=O)NC(=O)CNC1=O ({CH2CO}-YHLYYVSLYGNLGCG-NH2; thioether N-14) | 6.4
15 | CC[C@H](C)[C@@H]1NC(=O)[C@H](CCCNC(=N)N)NC(=O)[C@H](Cc2ccc(O)cc2)NC(=O)[C@H](Cc2ccc(O)cc2)NC(=O)[C@H](Cc2c[nH]cn2)NC(=O)[C@H](CCC(N)=O)NC(=O)[C@H](Cc2ccc(O)cc2)NC(=O)CSC[C@@H](C(=O)NCC(N)=O)NC(=O)CNC(=O)[C@H](CC(C)C)NC(=O)[C@H](CCC(=O)O)NC(=O)CNC(=O)[C@H](Cc2ccc(O)cc2)NC(=O)[C@H](CC(C)C)NC1=O ({CH2CO}-YQHYYRILYGELGCG-NH2; thioether N-14) | > 30000
16 | CC(C)C[C@@H]1NC(=O)[C@H](C)NC(=O)[C@H](Cc2ccc(O)cc2)NC(=O)[C@H](Cc2ccc(O)cc2)NC(=O)[C@H](Cc2ccc(O)cc2)NC(=O)[C@H](CC(C)C)NC(=O)[C@H](Cc2ncc[nH]2)NC(=O)[C@H](Cc2ccc(O)cc2)NC(=O)CSC[C@@H](C(=O)NCC(N)=O)NC(=O)CNC(=O)[C@H](CC(C)C)NC(=O)[C@H](CC(N)=O)NC(=O)CNC(=O)[C@H](Cc2ccc(O)cc2)NC1=O ({CH2CO}-Y[Ala(imidazol-2-yl)]LYYYALYGNLGCG-NH2; thioether N-14) | 11.8
17 | CC(C)C[C@@H]1NC(=O)[C@H](CO)NC(=O)CNC(=O)[C@H](Cc2ccc(O)cc2)NC(=O)[C@H](CC(C)C)NC(=O)[C@H](CO)NC(=O)[C@H](CCCNC(=N)N)NC(=O)[C@H](Cc2ccc(O)cc2)NC(=O)[C@H](Cc2ccc(O)cc2)NC(=O)[C@H](C(C)C)NC(=O)[C@H](Cc2cnc[nH]2)NC(=O)[C@H](Cc2ccc(O)cc2)NC(=O)CSC[C@@H](C(=O)NCC(N)=O)NC(=O)CNC1=O ({CH2CO}-YHVYYRSLYGSLGCG-NH2; thioether N-14) | 5.4
